Experiment: Pharmacokinetics after single inhaled dose of 5-MeO-DMT (LC-MS/MS)
Type: in vivo, human
Set-up: blood concentration relative to LLOQ: dose or concentration left out as unconfirmed
Conditions: metabolite after inhaled 5-MeO-DMT
Description: Blood samples were obtained at 1; 2; 4; 7; 10; 15; 20; 30; 45 min and 1; 1.5; 2; 3; 4 hours after administration.
PK parameters were generated by algebraic analysis of the concentration versus time plots for each individual. The analysis was carried out using the software Phoenix WinNonlin 6.3.

With `CN(C)CCc1c[nH]c2ccc(O)cc12` [bufotenine] the “blood concentration observations with uptitration scheme” value was “Substantially similar observations” and the “blood concentration relative to LLOQ” value was “Only in few samples, concentrations were above the lower level of quantification”.
